Experimental data as given in paper PMC10436550, “Subacute toxicity evaluations of LPM3480392 in rats, a full µ-opioid receptor biased agonist” (Frontiers in Pharmacology, 2023).

Assay: Food consumption, 4-week subacute toxicity study
Format: in vivo, Sprague Dawley (SD) rats
Experimental: Food consumption of all surviving animals was recorded twice a week during the dosing phase and then once a week in last 2 weeks of recovery phase.

[1] = female rats, 0.6 mg/kg/day, Day 3
[2] = female rats, 0.6 mg/kg/day, Day 7
[3] = female rats, 0.6 mg/kg/day, Day 10
[4] = female rats, 0.6 mg/kg/day, Day 14
[5] = female rats, 0.6 mg/kg/day, Day 17
[6] = female rats, 0.6 mg/kg/day, Day 21
[7] = female rats, 0.6 mg/kg/day, Day 24
[8] = female rats, 0.6 mg/kg/day, Day 28
[9] = female rats, 0.6 mg/kg/day, Recovery day 20
[10] = female rats, 0.6 mg/kg/day, Recovery day 27
[11] = female rats, 1.2 mg/kg/day, Day 3
[12] = female rats, 1.2 mg/kg/day, Day 7
[13] = female rats, 1.2 mg/kg/day, Day 10
[14] = female rats, 1.2 mg/kg/day, Day 14
[15] = female rats, 1.2 mg/kg/day, Day 17
[16] = female rats, 1.2 mg/kg/day, Day 21
[17] = female rats, 1.2 mg/kg/day, Day 24
[18] = female rats, 1.2 mg/kg/day, Day 28
[19] = female rats, 1.2 mg/kg/day, Recovery day 20
[20] = female rats, 1.2 mg/kg/day, Recovery day 27
[21] = female rats, 2.4 mg/kg/day, Day 3
[22] = female rats, 2.4 mg/kg/day, Day 7
[23] = female rats, 2.4 mg/kg/day, Day 10
[24] = female rats, 2.4 mg/kg/day, Day 14
[25] = female rats, 2.4 mg/kg/day, Day 17
[26] = female rats, 2.4 mg/kg/day, Day 21
[27] = female rats, 2.4 mg/kg/day, Day 24
[28] = female rats, 2.4 mg/kg/day, Day 28
[29] = female rats, 2.4 mg/kg/day, Recovery day 20
[30] = female rats, 2.4 mg/kg/day, Recovery day 27
[31] = male rats, 0.6 mg/kg/day, Day 3
[32] = male rats, 0.6 mg/kg/day, Day 7
[33] = male rats, 0.6 mg/kg/day, Day 10
[34] = male rats, 0.6 mg/kg/day, Day 14
[35] = male rats, 0.6 mg/kg/day, Day 17
[36] = male rats, 0.6 mg/kg/day, Day 21
[37] = male rats, 0.6 mg/kg/day, Day 24
[38] = male rats, 0.6 mg/kg/day, Day 28
[39] = male rats, 0.6 mg/kg/day, Recovery day 20
[40] = male rats, 0.6 mg/kg/day, Recovery day 27
[41] = male rats, 1.2 mg/kg/day, Day 3
[42] = male rats, 1.2 mg/kg/day, Day 7
[43] = male rats, 1.2 mg/kg/day, Day 10
[44] = male rats, 1.2 mg/kg/day, Day 14
[45] = male rats, 1.2 mg/kg/day, Day 17
[46] = male rats, 1.2 mg/kg/day, Day 21
[47] = male rats, 1.2 mg/kg/day, Day 24
[48] = male rats, 1.2 mg/kg/day, Day 28
[49] = male rats, 1.2 mg/kg/day, Recovery day 20
[50] = male rats, 1.2 mg/kg/day, Recovery day 27
[51] = male rats, 2.4 mg/kg/day, Day 3
[52] = male rats, 2.4 mg/kg/day, Day 7
[53] = male rats, 2.4 mg/kg/day, Day 10
[54] = male rats, 2.4 mg/kg/day, Day 14
[55] = male rats, 2.4 mg/kg/day, Day 17
[56] = male rats, 2.4 mg/kg/day, Day 21
[57] = male rats, 2.4 mg/kg/day, Day 24
[58] = male rats, 2.4 mg/kg/day, Day 28
[59] = male rats, 2.4 mg/kg/day, Recovery day 20
[60] = male rats, 2.4 mg/kg/day, Recovery day 27

SMILES: Fc1ccc([C@]2(CCNCc3cccc(Cl)c3)CCO[C@]3(CCOC3)C2)nc1 [LPM3480392]
- Food consumption [1]: 12.6 ± 1.3 g/animal/cage/day
- Food consumption change rate [1]: −14.86%
- Food consumption [2]: 15.4 ± 1.1 g/animal/cage/day
- Food consumption change rate [2]: 1.32%
- Food consumption [3]: 15.9 ± 1.1 g/animal/cage/day
- Food consumption change rate [3]: −3.05%
- Food consumption [4]: 16.0 ± 0.5 g/animal/cage/day
- Food consumption change rate [4]: −15.79%
- Food consumption [5]: 15.8 ± 1.0 g/animal/cage/day
- Food consumption change rate [5]: 9.72%
- Food consumption [6]: 15.7 ± 0.7 g/animal/cage/day
- Food consumption change rate [6]: −1.88%
- Food consumption [7]: 14.9 ± 1.4 g/animal/cage/day
- Food consumption change rate [7]: −6.29%
- Food consumption [8]: 16.4 ± 0.9 g/animal/cage/day
- Food consumption change rate [8]: −0.61%
- Food consumption [9]: 15.9 g/animal/cage/day
- Food consumption change rate [9]: −5.36%
- Food consumption [10]: 13.3 g/animal/cage/day
- Food consumption change rate [10]: −15.82%
- Food consumption [11]: 14.9 ± 1.1 g/animal/cage/day
- Food consumption change rate [11]: 0.68%
- Food consumption [12]: 15.0 ± 1.3 g/animal/cage/day
- Food consumption change rate [12]: −1.32%
- Food consumption [13]: 15.2 ± 0.6 g/animal/cage/day
- Food consumption change rate [13]: −7.32%
- Food consumption [14]: 15.7 ± 0.9 g/animal/cage/day
- Food consumption change rate [14]: −17.37%
- Food consumption [15]: 16.6 ± 0.2 g/animal/cage/day
- Food consumption change rate [15]: 15.28%
- Food consumption [16]: 15.8 ± 1.4 g/animal/cage/day
- Food consumption change rate [16]: −1.25%
- Food consumption [17]: 16.6 ± 1.7 g/animal/cage/day
- Food consumption change rate [17]: 4.40%
- Food consumption [18]: 16.4 ± 0.8 g/animal/cage/day
- Food consumption change rate [18]: −0.61%
- Food consumption [19]: 15.1 g/animal/cage/day
- Food consumption change rate [19]: −10.12%
- Food consumption [20]: 16.7 g/animal/cage/day
- Food consumption change rate [20]: 5.70%
- Food consumption [21]: 13.0 ± 2.1 g/animal/cage/day
- Food consumption change rate [21]: −12.16%
- Food consumption [22]: 15.8 ± 1.9 g/animal/cage/day
- Food consumption change rate [22]: 3.95%
- Food consumption [23]: 15.1 ± 0.8 g/animal/cage/day
- Food consumption change rate [23]: −7.93%
- Food consumption [24]: 17.5 ± 1.0 g/animal/cage/day
- Food consumption change rate [24]: −7.89%
- Food consumption [25]: 15.1 ± 1.0 g/animal/cage/day
- Food consumption change rate [25]: 4.86%
- Food consumption [26]: 17.5 ± 1.3 g/animal/cage/day
- Food consumption change rate [26]: 9.38%
- Food consumption [27]: 15.6 ± 1.2 g/animal/cage/day
- Food consumption change rate [27]: −1.89%
- Food consumption [28]: 16.7 ± 0.8 g/animal/cage/day
- Food consumption change rate [28]: 1.21%
- Food consumption [29]: 16.4 g/animal/cage/day
- Food consumption change rate [29]: −2.38%
- Food consumption [30]: 15.0 g/animal/cage/day
- Food consumption change rate [30]: −5.06%
- Food consumption [31]: 19.7 ± 0.1 g/animal/cage/day
- Food consumption change rate [31]: −2.96%
- Food consumption [32]: 20.8 ± 0.6 g/animal/cage/day
- Food consumption change rate [32]: −8.37%
- Food consumption [33]: 23.0 ± 1.6 g/animal/cage/day
- Food consumption change rate [33]: −17.56%
- Food consumption [34]: 21.0 ± 1.3 g/animal/cage/day
- Food consumption change rate [34]: −17.32%
- Food consumption [35]: 21.1 ± 1.9 g/animal/cage/day
- Food consumption change rate [35]: −11.34%
- Food consumption [36]: 21.6 ± 0.8 g/animal/cage/day
- Food consumption change rate [36]: −9.24%
- Food consumption [37]: 20.6 ± 1.0 g/animal/cage/day
- Food consumption change rate [37]: −8.04%
- Food consumption [38]: 22.9 ± 1.2 g/animal/cage/day
- Food consumption change rate [38]: −5.76%
- Food consumption [39]: 25.2 g/animal/cage/day
- Food consumption change rate [39]: 0.40%
- Food consumption [40]: 22.3 g/animal/cage/day
- Food consumption change rate [40]: 0.90%
- Food consumption [41]: 19.2 ± 0.9 g/animal/cage/day
- Food consumption change rate [41]: −5.42%
- Food consumption [42]: 20.5 ± 0.7 g/animal/cage/day
- Food consumption change rate [42]: −9.69%
- Food consumption [43]: 20.4 ± 1.8 g/animal/cage/day
- Food consumption change rate [43]: −26.88%
- Food consumption [44]: 20.2 ± 0.7 g/animal/cage/day
- Food consumption change rate [44]: −20.47%
- Food consumption [45]: 20.5 ± 1.7 g/animal/cage/day
- Food consumption change rate [45]: −13.87%
- Food consumption [46]: 23.2 ± 1.2 g/animal/cage/day
- Food consumption change rate [46]: −2.52%
- Food consumption [47]: 22.2 ± 1.1 g/animal/cage/day
- Food consumption change rate [47]: −0.89%
- Food consumption [48]: 22.5 ± 1.3 g/animal/cage/day
- Food consumption change rate [48]: −7.41%
- Food consumption [49]: 24.5 g/animal/cage/day
- Food consumption change rate [49]: −2.39%
- Food consumption [50]: 22.6 g/animal/cage/day
- Food consumption change rate [50]: 2.26%
- Food consumption [51]: 17.8 ± 0.8 g/animal/cage/day
- Food consumption change rate [51]: −12.32%
- Food consumption [52]: 20.0 ± 2.3 g/animal/cage/day
- Food consumption change rate [52]: −11.89%
- Food consumption [53]: 20.1 ± 1.9 g/animal/cage/day
- Food consumption change rate [53]: −27.96%
- Food consumption [54]: 17.3 ± 5.2 g/animal/cage/day
- Food consumption change rate [54]: −31.89%
- Food consumption [55]: 20.1 ± 0.7 g/animal/cage/day
- Food consumption change rate [55]: −15.55%
- Food consumption [56]: 23.2 ± 1.1 g/animal/cage/day
- Food consumption change rate [56]: −2.52%
- Food consumption [57]: 22.1 ± 3.0 g/animal/cage/day
- Food consumption change rate [57]: −1.34%
- Food consumption [58]: 22.5 ± 1.9 g/animal/cage/day
- Food consumption change rate [58]: −7.41%
- Food consumption [59]: 24.0 g/animal/cage/day
- Food consumption change rate [59]: −4.38%
- Food consumption [60]: 23.8 g/animal/cage/day
- Food consumption change rate [60]: 7.69%
